Measurements taken from patent US20150190470A1, “COMBINATION THERAPY” (TETRALOGIC PHARMACEUTICALS CORPORATION, priority 2012, published 2015).

Assays:
[1] = human, in vivo
From the text: In general, Compound 15 can be administered once, twice or three times per week for one to four weeks (or longer). In some situations a treatment interval may be followed by a rest interval. A suitable rest interval includes but is not limited to one week. […] It should be understood that the “on” weeks are consecutive weeks, i.e., two consecutive weeks on drug, three consecutive weeks on drug, and four consecutive weeks (or more) on drug.

[2] = tested on: MDA-MB-231 cells (human breast cancer), Smac mimetic resistant variant; test: Viability of MDA-MB-231 cells (MTT) with PBMC culture supernatants and Compound 15; format: cell-based; conditions: 1 μM Compound 15 with supernatant of 1 ng/mL GM-CSF-treated Donor 1 PBMC culture, 24 hr, FIG. 3(a)
Description: MDA-MB-231 cells (human breast cancer) were seeded into 96-well plates at a density of 10,000 cells/well and allowed to adhere overnight. Next day, culture supernatants from untreated Donor 1 PBMC culture or 1 ng/mL GM-CSF-treated Donor 1 PBMC culture was added to MDA-MB-231 cells in the presence or absence of 1 μM Compound 15, 1 μM Compound 15 plus TNFα neutralizing antibody (R&D Systems #MAB610, 10 μg/mL), 1 μM Compound 15 plus TRAIL neutralizing antibodies (R&D Systems #374-DR and 631-T2, 100 ng/ml each) or 1 μM Compound 15 plus both TNFα and TRAIL neutralizing antibodies. All antibodies were tested in the absence of Compound 15 as control. Viability of MDA-MB-231 cells was measured following 24 hr incubation at 37° C./5% CO2 by MTT (3-(4,5-dimethylthiazol-2-yl)-2,5-diphenyltetrazolium bromide) assay substantially as described in Hansen, M. B., Nielsen, S. E., and Berg, K. (1989) J. Immunol. Methods 119, 203-210.
In an extension study, substantially the same experiment was carried out with culture supernatants from two additional donors, Donors 3 and 4, excluding treatment with the combination of anti-TNFα and anti-TRAIL antibodies.

RenCa cells = test: Survival of BALB/c mice inoculated with RenCa cells; format: in vivo; conditions: female BALB/c mice, RenCa cells on each flank; qdX5 each week for 4 weeks; birinapant 15 mg/Kg IP, mGM-CSF 10 mg IP
Description: 40 female BALB/c mice (10 per treatment group) were inoculated with 1×10^5 RenCa cells on each flank. The mice were subsequently treated qdX5 each week for 4 consecutive weeks with birinapant, mGM-CSF, birinapant and mGM-CSF, or a vehicle control. Each dose of birinapant was 15 mg/Kg IP and each dose of mGM-CSF was 10 mg IP.

[3] = tested on: human peripheral blood mononuclear cells (PBMCs); test: Ex-vivo treatment of PBMCs with GM-CSF; cytokine concentration in culture supernatants by ELISA; format: cell-based
Description: Peripheral blood mononuclear cells (PBMC) were isolated from two healthy male donors using BD Vacutainer® CPT cell preparation tubes (Becton, Dickinson and Company, Franklin Lakes N.J. 07417, REF 362753) according to manufacturer's protocol. After isolation, mononuclear cell layer was removed from CPT tube and transferred to a sterile 15 mL centrifuge tube. Cells were washed by adding 10 mL of Dulbecco's Modified Eagle Medium (DMEM) containing 10% fetal bovine serum (FBS) to cells, tube was inverted several times to mix and cells were pelleted by centrifugation at 1500 RPM for 10 minutes. Following centrifugation, media was removed and cells were resuspended in DMEM containing 10% FBS to a concentration of 1×10^6 cells/mL. Cells were next seeded into 6-well dishes at 1×10^6 cells/mL in 2 mL/well. Following 2 hr incubation at 37° C./5% CO2, human recombinant GM-CSF (R&D Systems, Minneapolis Minn. 55413, Catalog # #215-GM) was added to cells at indicated concentrations. Following overnight incubation at 37° C./5% CO2, media was collected into sterile 15 mL centrifuge tubes and cells were removed by centrifugation at 1500 RPM for 10 minutes. Media was transferred to new, sterile tubes and frozen at −80° C. until use.
TNFα concentration in culture supernatants was determined by ELISA (BD OptEIA TNF kit II) according to manufacturer's recommendations. Absorbance values were analyzed using GraphPad Prism linear regression analysis and reported as pg/mL TNFα.
In a first extension of the preceding study, substantially the same experiment was carried out with PBMCs from two additional donors, Donors 3 and 4. In this first extension study, cells were treated with GM-CSF, GM-CSF+1.0 uM birinapant.
In a second extension study, substantially the same experiment was subsequently carried out with new PBMC culture supernatants from Donors 1, 3, and 4.

[4] = tested on: Mouse renal carcinoma (RenCa) cells; test: Viability of RenCa cells (MTT) with birinapant plus TNFα or mouse GM-CSF; format: cell-based; conditions: in combination with birinapant, TNFα 0.000001 to 100 ng/mL or mouse GM-CSF 0.001 to 10 ng/mL, 24 h
Description: Mouse renal carcinoma (RenCa) cells were seeded into 96-well plates at a density of 10,000 cells/well and allowed to adhere overnight. On the next day, birinapant alone or in combination with varying concentrations of TNFα (R&D systems) (0.000001 to 100 ng/mL) or mouse GM-CSF (R&D Systems) (0.001 to 10 ng/mL) were added. Following a 24 h incubation, viability was assessed by MTT assay.

## CC[C@H](NC(=O)[C@H](C)NC)C(=O)N1C[C@@H](O)C[C@H]1Cc1c(-c2[nH]c3cc(F)ccc3c2C[C@@H]2C[C@H](O)CN2C(=O)[C@H](CC)NC(=O)[C@H](C)NC)[nH]c2cc(F)ccc12 [Compound 15, N-{1S-[2R-(6,6′-Difluoro-3′-{4S-hydroxy-1-[2S-(2S-methylamino-propionylamino)-butyryl]-pyrrolidin-2R-ylmethyl}-1H,1′H-[2,2′]biindolyl-3-ylmethyl)-4S-hydroxy-pyrrolidine-1-carbonyl]-propyl}-2S-methylamino-propionamide]
[1]
  half-life in the patient: long half-life
[2]
  viability of MDA-MB-231 cells / induction of apoptosis: sensitization of MDA-MB-231 Smac mimetic resistant variant to Compound 15
RenCa cells
  time to which 50% of mice survived: approximately 40 days

## GM-CSF: Granulocyte macrophage colony-stimulating factor; human recombinant GM-CSF (R&D Systems) in Example 1
[3]; Donors 1 and 2, overnight incubation with GM-CSF, ELISA, FIGS. 1(a),(b)
  expression and secretion of TNFα by PBMCs: increased expression and secretion of TNFα
[3]; first extension study, Donors 3 and 4, FIGS. 1(c),(d)
  expression and secretion of TNFα by PBMCs: increased expression and secretion of TNFα
[3]; second extension study, new PBMC culture supernatants from Donors 1, 3 and 4, FIGS. 2(a)-(c)
  expression and secretion of TNFα by PBMCs: increased expression and secretion of TNFα
[4]
  RenCa cell viability: unaffected

## TNFα [reference compound]
[4]
  RenCa cell viability: decreased in direct relation to the concentration of TNFα

B1: mGM-CSF: mouse GM-CSF (R&D Systems) (protein, UniProt P01587 18-141, looked up)
Granulocyte-macrophage …: APTRSPITVTRPWKHVEAIKEALNLLDDMPVTLNEEVEVVSNEFSFKKLTCVQTRLKIFEQGLRGNFTKLKGALNMTASYYQTYCPPTPETDCETQVTTYADFIDSLKTFLTDIPFECKKPGQK
RenCa cells
  time to which 50% of mice survived: approximately 30 days
